IC50, AC50 and EC50 data for 4 molecules are collected here from ChEMBL document CHEMBL1201862, “PubChem BioAssay data set” (2004).

The source made the active and inactive calls.

The target in test [1] is Sphingosine 1-phosphate receptor 1 (Homo sapiens, UniProt P21453). The class given is functional.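 Also: Tango beta-arrestin reporter U2OS cells stimulated with S1P near its EC80; inhibitor potency meaning antagonism of receptor activation by the natural agonist.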
Test [2] in a line: A549 cell cytotoxicity, dose response, cytotoxicity control, plate reader, cherry-pick, antagonist series (AID 743412). The format is functional, cell-based.
In test [3] the target is Photoreceptor-specific nuclear receptor (Homo sapiens, UniProt Q9Y5X4). The format is functional, cell-based.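 Also: CHO-S cells with Gal4-NCOR and VP16-NR2E3 two-hybrid luciferase reporter.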
Photoreceptor-specific nuclear receptor, sequence (Q9Y5X4 whole entry, the tested form may be a part): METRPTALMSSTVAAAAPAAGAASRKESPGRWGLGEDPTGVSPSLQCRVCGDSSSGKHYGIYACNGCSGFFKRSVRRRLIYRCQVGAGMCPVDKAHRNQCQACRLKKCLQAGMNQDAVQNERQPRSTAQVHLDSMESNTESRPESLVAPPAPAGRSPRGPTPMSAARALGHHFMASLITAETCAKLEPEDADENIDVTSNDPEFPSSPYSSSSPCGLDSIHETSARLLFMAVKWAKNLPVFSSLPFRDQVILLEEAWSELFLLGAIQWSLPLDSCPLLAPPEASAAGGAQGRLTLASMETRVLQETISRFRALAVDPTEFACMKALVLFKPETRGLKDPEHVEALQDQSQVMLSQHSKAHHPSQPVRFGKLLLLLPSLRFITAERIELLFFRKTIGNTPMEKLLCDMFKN
In test [4] the target is T1, Sphingosine 1-phosphate receptor 4 (Homo sapiens, UniProt O95977).
T1 sequence (O95977 whole entry): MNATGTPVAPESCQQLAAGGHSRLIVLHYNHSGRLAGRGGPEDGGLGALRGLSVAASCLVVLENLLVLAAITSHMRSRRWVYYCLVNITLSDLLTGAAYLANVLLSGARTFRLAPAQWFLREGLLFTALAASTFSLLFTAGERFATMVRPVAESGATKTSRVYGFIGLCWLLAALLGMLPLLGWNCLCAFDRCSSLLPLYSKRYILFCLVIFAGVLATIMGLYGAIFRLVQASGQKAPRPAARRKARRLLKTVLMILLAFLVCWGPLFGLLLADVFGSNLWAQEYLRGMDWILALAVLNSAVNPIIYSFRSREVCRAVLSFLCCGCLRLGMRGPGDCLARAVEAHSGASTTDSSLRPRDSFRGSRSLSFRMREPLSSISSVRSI
Kind of test: Fluorescence dose response cell-based high throughput screening assay for antagonists of the Sphingosine 1-Phosphate Receptor 4 (S1P4). [Related pubchem assays: 1524 (Confirmation in triplicates.), 1510 (Primary screen.)]. The format is functional.

Test [5] in a line: Luminescence Cell-Based Dose Response HTS to Identify Activators of Luciferase Translation or Activity in H4 […] Cells. [Related pubchem assays: 1829 (Project Summary), 1814 (Primary HTS)]. The class given is functional.
The nature of test [6]: blockade of melanocortin 4 receptor signaling – cell-based, plate reader, cherry pick, counter-screen for LGR2 antagonist project, dose response (AID 743444).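 Also: transfected HEK 293 cells stimulated with alpha-MSH peptide; potency of inhibitors of the alpha-MSH evoked signal.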 The format is functional. On the technique in general: The purpose of a counterscreen is to sort out artefacts and off-target activity.
A short description of test [7]: blockers of bursicon-stimulated LGR2 cAMP reporter – cell-based, HEK293, CRE-luciferase reporter, cherry pick, set 2, dose response (AID 743343).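 Also: transfected cells were stimulated with diluted bursicon conditioned medium after compound addition.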 The class given is functional. A general note: Reporter assays use an easily measured gene product as a stand-in for the process of interest.
The target of a further test is Paired box protein Pax-8 (Homo sapiens, UniProt Q06710). Description: PAX8 transcriptional activity inhibition in RMG-I – RMG-I cells, luciferase, cherry-pick, dose response (AID 687027).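 Also: luciferase reporter driven by Pax8 target thyroperoxidase promoter measured by SteadyGlo luminescence.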 The format is functional, cell-based.
Paired box protein Pax-8, sequence (Q06710 whole entry): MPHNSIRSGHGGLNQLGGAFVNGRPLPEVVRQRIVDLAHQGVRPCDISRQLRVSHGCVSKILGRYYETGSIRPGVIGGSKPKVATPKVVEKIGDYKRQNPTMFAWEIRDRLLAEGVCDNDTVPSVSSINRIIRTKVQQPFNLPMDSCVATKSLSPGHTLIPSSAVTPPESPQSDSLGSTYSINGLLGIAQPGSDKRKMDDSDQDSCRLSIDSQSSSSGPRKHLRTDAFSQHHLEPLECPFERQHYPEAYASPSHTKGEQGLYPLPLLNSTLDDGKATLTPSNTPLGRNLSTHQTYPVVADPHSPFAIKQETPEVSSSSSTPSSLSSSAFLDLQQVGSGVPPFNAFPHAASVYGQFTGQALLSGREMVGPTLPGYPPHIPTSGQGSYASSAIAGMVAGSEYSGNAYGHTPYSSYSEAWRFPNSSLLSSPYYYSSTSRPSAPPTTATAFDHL
The nature of test [8]: reduced cellular PGC1a acetyl-lysine signal – cell-based, cherry-picked samples, dose response (AID 720514).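 Also: potency may reflect raised or lowered acetylation signal.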 The class given is functional.
Test [9] concerns the target T1, Sphingosine 1-phosphate receptor 4. Kind of test: Late stage fluorescence dose response cell-based screening assay for antagonists of the Sphingosine 1-Phosphate Receptor 4 (S1P4). [Related pubchem assays: 1524 (Confirmation screen (S1P4 antagonists).), 1510 (Primary screen (S1P4 antagonists).), 1853 (Summary AID (S1P4 antagonists).), 1692 (Dose response screen (S1P4 antagonists).)]. The class given is functional.

A short description of test [10]: Luminescence Cell-Based Dose Confirmation HTS to Identify Activators of 5'UTR Stem-Loop Driven Alpha-Synuclein mRNA Translation in H4 Neuroglioblastoma Cells. [Related pubchem assays: 1829 (Project Summary), 1814 (Primary HTS)]. The format is functional.
The nature of test [11]: Fluorescence-based cell-based high throughput dose response assay for inhibitors of the interaction of nucleotide-binding oligomerization domain containing 2 (NOD2) and the receptor-interacting serine-threonine kinase 2 (RIPK2). The format is functional. The following applies: Homo sapiens.
A further test concerns H4. Kind of test: Luminescence Cell-Based Dose Response HTS to Identify Activators of 5'UTR Stem-Loop Driven Prion Protein mRNA Translation in H4 Neuroglioblastoma Cells. [Related pubchem assays: 1829 (Project Summary), 1814 (Primary HTS)]. The class given is functional. Particulars: Homo sapiens.
A further test relates to INS1. Description: INS-1E survival protection against cytokine death – cell-based, luminescence, retest, dose response (AID 449756).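 Also: cell death triggered by IL-1 beta plus TNF-alpha plus IFN-gamma mixture; protective hits raise ATP signal compared with cytokine alone wells.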 The following applies: Rattus norvegicus. The class given is functional.
In test [12] the target is G-protein coupled receptor 55 (Homo sapiens, UniProt Q9Y2T6). Description: selective activators of receptor GPR55 – imaging, U2OS cells, beta-arrestin-GFP redistribution, primary screen (AID 1961). The format is functional.
G-protein coupled receptor 55, sequence (Q9Y2T6 whole entry): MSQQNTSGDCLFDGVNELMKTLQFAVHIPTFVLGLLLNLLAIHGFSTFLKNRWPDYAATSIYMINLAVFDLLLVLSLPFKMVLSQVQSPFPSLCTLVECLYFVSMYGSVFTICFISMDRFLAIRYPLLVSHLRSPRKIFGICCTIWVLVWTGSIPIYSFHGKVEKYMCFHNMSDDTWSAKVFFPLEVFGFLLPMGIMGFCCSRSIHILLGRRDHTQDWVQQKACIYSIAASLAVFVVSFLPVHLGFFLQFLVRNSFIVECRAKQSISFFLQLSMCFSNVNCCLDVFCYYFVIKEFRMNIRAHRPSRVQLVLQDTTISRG
Test [13] is described as follows: toxicity toward HepG2 liver cells – cell-based, plate reader, cherry-pick, antagonist series, cytotoxicity control, dose response (AID 743416). The class given is functional.
Test [14] can be described thus: viability loss in HEK293 cells – cell-based, plate reader, cherry-picked samples, cytotoxicity control, dose response (AID 743446). The class given is functional.
Test [15] in a line: viability of PTEN-deleted HCT116 cells – cell-based, HCT116 PTEN knockout, dose response (AID 1047).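 Also: HCT116 colon tumor cells with PTEN knocked out; cells exposed to compound for 60 hours before readout; potency for loss of cell viability measured by luminescence.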 The format is functional.
A short description of test [16]: viability of HCT116 lacking mutant beta-catenin – cell-based, human colon tumor, dose response (AID 1045).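 Also: HCT116 colon tumor cells with beta catenin knocked out; cells exposed to compound for 60 hours.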 The format is functional.
The next test concerns the target Beta Lactamase (Pseudomonas aeruginosa, UniProt Q932Y6). Kind of test: BLA reporter interference, concentration series – BLA reporter cells, FRET fluorescence, artefact control for NOD2-RIPK2 interaction inhibitor project, dose response (AID 651552). The format is functional, cell-based.
Test [17] addresses Glyceraldehyde-3-phosphate dehydrogenase (Homo sapiens, UniProt P04406).
For test [18], the target named is Alkaline phosphatase, placental type (Homo sapiens, UniProt P05187). Kind of test: human placental alkaline phosphatase inhibition – biochemical, luminescence, confirmation (AID 1512). The format is functional.
Alkaline phosphatase, placental type, sequence (P05187 whole entry): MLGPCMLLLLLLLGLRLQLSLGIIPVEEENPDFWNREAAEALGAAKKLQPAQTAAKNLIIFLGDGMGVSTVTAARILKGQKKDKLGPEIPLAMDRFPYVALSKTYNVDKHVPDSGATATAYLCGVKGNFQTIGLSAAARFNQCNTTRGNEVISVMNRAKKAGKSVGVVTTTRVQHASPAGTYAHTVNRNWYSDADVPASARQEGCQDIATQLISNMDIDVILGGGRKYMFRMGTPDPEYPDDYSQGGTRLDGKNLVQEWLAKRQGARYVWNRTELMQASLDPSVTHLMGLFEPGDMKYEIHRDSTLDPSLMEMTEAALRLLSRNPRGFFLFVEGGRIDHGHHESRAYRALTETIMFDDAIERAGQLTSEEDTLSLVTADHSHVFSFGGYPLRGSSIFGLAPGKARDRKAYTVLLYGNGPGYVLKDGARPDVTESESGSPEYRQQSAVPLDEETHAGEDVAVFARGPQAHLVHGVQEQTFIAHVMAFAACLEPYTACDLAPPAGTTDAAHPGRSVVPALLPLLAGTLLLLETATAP
Test [19] deals with T2, Alkaline phosphatase, tissue-nonspecific isozyme (Homo sapiens, UniProt P05186).
T2 sequence (P05186 whole entry): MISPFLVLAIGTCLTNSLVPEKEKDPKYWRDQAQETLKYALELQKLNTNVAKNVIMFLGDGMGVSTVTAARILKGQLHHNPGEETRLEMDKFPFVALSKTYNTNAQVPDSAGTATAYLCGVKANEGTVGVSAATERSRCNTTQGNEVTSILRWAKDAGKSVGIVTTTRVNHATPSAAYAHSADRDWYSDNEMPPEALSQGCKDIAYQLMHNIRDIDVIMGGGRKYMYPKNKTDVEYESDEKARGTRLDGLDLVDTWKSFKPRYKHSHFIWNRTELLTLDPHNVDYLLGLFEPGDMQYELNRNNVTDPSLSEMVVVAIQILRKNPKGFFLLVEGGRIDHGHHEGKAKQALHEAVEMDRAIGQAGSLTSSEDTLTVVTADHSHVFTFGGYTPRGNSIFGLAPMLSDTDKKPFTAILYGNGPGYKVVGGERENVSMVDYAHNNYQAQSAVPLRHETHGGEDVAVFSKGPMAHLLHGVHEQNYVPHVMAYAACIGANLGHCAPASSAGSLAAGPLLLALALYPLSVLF
Description: potency against alkaline phosphatase TNAP – biochemical, luminescent, dose response, SAR follow-up (AID 1056).

A further test deals with T3, Coagulation factor XII (Homo sapiens, UniProt P00748).
T3 sequence (P00748 whole entry): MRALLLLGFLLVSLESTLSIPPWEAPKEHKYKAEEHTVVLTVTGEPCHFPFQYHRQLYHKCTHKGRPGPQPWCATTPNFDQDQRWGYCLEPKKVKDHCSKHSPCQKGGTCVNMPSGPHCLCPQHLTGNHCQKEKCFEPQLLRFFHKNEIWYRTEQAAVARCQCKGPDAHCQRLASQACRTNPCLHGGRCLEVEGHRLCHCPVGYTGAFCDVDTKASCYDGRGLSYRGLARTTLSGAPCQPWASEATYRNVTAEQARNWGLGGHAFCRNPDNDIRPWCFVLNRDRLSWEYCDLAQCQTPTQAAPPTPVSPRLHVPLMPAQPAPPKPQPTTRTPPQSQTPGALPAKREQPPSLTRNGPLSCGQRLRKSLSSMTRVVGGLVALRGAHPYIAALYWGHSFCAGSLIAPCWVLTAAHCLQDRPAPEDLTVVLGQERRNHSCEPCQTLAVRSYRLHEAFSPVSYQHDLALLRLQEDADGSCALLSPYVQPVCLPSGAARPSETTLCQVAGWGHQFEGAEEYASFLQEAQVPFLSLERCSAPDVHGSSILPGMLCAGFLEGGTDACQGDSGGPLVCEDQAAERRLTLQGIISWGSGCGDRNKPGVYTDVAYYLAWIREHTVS
Description: activated coagulation factor XII inhibitor potency, concentration-effect curve, cell-free (AID 716). The format is functional.

A further test concerns the target Hexokinase (Trypanosoma brucei, UniProt Q38C41). Description: Confirmation assay for inhibitors of Trypanosoma brucei hexokinase 1-Analogue-first series. [Related pubchem assays (depositor defined):AID1430, AID1632, AID2516, AID2560, AID2579, AID2600, AID449725, AID492951]. The format is functional.

Hexokinase, sequence (Q38C41 whole entry): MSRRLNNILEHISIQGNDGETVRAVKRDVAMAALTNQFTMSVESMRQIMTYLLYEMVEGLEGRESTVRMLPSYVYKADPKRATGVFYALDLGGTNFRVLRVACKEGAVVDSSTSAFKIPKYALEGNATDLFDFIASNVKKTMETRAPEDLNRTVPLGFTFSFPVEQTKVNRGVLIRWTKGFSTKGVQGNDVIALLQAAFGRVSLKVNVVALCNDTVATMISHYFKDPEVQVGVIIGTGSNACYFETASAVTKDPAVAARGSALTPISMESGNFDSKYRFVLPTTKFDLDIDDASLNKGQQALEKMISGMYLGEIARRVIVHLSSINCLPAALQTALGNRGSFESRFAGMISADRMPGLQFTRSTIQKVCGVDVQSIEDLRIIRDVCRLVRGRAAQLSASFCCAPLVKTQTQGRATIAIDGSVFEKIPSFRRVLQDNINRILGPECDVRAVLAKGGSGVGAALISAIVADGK
Glyceraldehyde-3-phosphate dehydrogenase, sequence (P04406 whole entry): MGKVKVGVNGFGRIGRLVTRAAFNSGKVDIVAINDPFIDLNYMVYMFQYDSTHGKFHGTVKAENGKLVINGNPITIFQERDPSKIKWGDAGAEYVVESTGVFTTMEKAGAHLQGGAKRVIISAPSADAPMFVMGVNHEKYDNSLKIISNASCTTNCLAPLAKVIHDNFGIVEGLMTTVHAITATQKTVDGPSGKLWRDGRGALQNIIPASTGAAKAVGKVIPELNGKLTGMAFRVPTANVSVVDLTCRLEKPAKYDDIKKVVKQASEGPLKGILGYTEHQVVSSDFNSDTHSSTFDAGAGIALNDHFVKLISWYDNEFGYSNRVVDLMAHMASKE
Sphingosine 1-phosphate receptor 1, sequence (P21453 whole entry): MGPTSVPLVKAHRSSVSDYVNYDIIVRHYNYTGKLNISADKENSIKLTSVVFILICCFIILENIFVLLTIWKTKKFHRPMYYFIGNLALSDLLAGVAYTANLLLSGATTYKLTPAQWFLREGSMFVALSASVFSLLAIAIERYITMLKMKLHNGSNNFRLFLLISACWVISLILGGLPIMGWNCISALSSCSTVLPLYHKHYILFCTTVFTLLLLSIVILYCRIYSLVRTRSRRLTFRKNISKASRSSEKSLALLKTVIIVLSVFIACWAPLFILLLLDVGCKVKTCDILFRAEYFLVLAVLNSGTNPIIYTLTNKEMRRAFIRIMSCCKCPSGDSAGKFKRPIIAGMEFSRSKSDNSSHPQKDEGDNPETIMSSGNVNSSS
Beta Lactamase, sequence (Q932Y6 whole entry): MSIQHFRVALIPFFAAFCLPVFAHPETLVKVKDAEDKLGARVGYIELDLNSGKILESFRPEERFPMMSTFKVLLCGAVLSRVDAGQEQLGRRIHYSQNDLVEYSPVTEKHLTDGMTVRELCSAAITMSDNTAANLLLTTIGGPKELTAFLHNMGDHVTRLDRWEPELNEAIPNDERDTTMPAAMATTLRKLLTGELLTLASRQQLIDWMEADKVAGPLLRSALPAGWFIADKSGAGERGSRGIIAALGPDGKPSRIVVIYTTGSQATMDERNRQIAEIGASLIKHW

A word on the IC50: it is the concentration at which inhibition is half-maximal. What is called AC50 is the midpoint of the concentration-response curve, whichever way the signal moves. Broadly, the EC50 is the midpoint of the concentration-response curve. Consider `O=C(NCc1cccnc1)/C(=C\c1ccc(-c2ccc(Cl)c(Cl)c2)o1)S(=O)(=O)c1ccccc1`, for which the IC50 was 8.81 µM (active) in test [1]; 4.08 µM (active) in [3]; 0.965 µM (active) in [4]; > 50 µM (not active) in test [9]; 4.34 µM (active) in test [11]; 26.7 µM (inactive) at Beta Lactamase. Moreover, the AC50 in test [2] was 6.6 µM (active); in [6], 7.86 µM (active); in [7] it was 8.45 µM (active); on Paired box protein Pax-8 it was 4.66 µM (active); in [8], 3.52 µM (active); with INS1, 3.63 µM (active). The AC50 in test [13] was 7.96 µM (active); in test [14] it was 8.51 µM (active). Moreover, the EC50 in test [5] is > 120 µM (not active); in [10], > 120 µM (not active); in the test with H4, > 120 µM (not active); in test [12] it was 1.61 µM (active); in [15] it was 2.92 µM (active); in [16] it was 2.39 µM (active).

On to `COc1cccc(Cc2nc(N)nn2-c2ccccc2)c1`, for which the IC50 in [17] was > 100 µM (not active); in test [18], > 100 µM (inactive); in test [19], > 100 µM (inactive).

Turning to `CC(C)(C)NC(=O)CN(C(=O)C1CSC(=O)C1)c1ccc2c(c1)OCCO2` (stereo not given), at Coagulation factor XII, the IC50 was > 50 µM (inactive).

`CCc1ccc(C(=O)Nc2cc(Br)ccc2C(=O)O)cc1`: the IC50 at Hexokinase was 5.45 µM (active).
